# Several values for one entry are separate records, joined by “and”; a condition that tells them apart may be missing. Equal values may be shown once.
# How the values were obtained:
# [1] = test system: PD-L1^+ cells in tumor-infiltrating lymphocytes; test: Example 2: flow cytometry, percentage of PD-L1^+ cells in TILs; assay type: in vivo, Mus musculus
# Procedure: (§1) Mice were sacrificed by CO2 euthanasia at the end of the study duration, and the connective tissue around tumor was resected. The tumor samples were then weighed and cut equally into three sections if the tumor weight over 400 mg. The tumor tissue was prepared for the isolation of tumor-infiltrating lymphocytes (TILs). The rest of one section was fixed in 10% formaldehyde and embedded in paraffin; the other was stored at a temperature below −70° C.
# (§2) The tumor samples were dissected into smaller fragments using scalpels and then digested with a cocktail of collagenase, DNase I, and Hyaluronidase (Collagenase #C5138, DNase I #D5025, Hyaluronidase #H6254, SigmaAldrich) for at least 2 hours.
# (§3) Cells were stained with the fluorescently conjugated surface antibodies and incubated for 30 minutes at 4° C., and then resuspended in staining buffer for flow cytometric analysis. Flow cytometry was done using a Navios EX Flow Cytometer (Beckman Coulter). Data were analyzed using the Kaluza Analysis Software (Beckman Coulter).
# [2] = test system: Calreticulin cells in tumor-infiltrating lymphocytes; test: Example 2: flow cytometry, percentage of Calreticulin cells in TILs; assay type: in vivo, Mus musculus; conditions: individual mice and group Mean; for CD45^− live cells (CD45^−ViaKrome405^weak) Cell count / Calreticulin cells (CD45^− Calreticulin^+) Cell count / Total CD45^− cells (CD45^−) Cell count: Cell count = Total cell × Total % × 10; for CD45^− live cells (CD45^−ViaKrome405^weak) CTL Gated % / CD45^− live cells (CD45^−ViaKrome405^weak) Total % / Calreticulin cells (CD45^− Calreticulin^+) CTL Gated % / Calreticulin cells (CD45^− Calreticulin^+) Total % / Total CD45^− cells (CD45^−) CD45^+ Gated % / Total CD45^− cells (CD45^−) Total %: TILs from tumor
# Procedure: as §1, §2, §3
# [3] = G2, OBI-3424 0.3 mg/kg, group Mean
# [4] = G2, OBI-3424 0.3 mg/kg, individual animal, 0.3 mg/kg
# [5] = G3, OBI-3424 1 mg/kg, group Mean
# [6] = G3, OBI-3424 1 mg/kg, individual animal, 1 mg/kg
# [7] = G2: OBI-3424 0.3 mg/kg, 0.3 mg/kg
# [8] = G2: OBI-3424 0.3 mg/kg, 0.3 mg/kg, group mean
# [9] = G3: OBI-3424 1 mg/kg, 1 mg/kg, group mean
compound,measurement,setting,value
"C[C@H](OP(=O)(N1CC1)N1CC1)c1ccc([N+](=O)[O-])c(Oc2cccc(C(=O)N(C)C)c2)c1 [OBI-3424, (S)-1-(3-(3-N,N-dimethylaminocarbonyl)phenoxyl-4-mtrophenyl)-1-ethyl-N,N′-bis(ethylene)phosphoramidate]","PD-L1^+ cells (CD45^− PD-L1^+), CD45^− Gated %",[1]; [3],9.15%
same,"PD-L1^+ cells (CD45^− PD-L1^+), Cell count",[1]; [3],4.91 ×10^5
same,"PD-L1^+ cells (CD45^− PD-L1^+), Total %",[1]; [3],1.95%
same,"Total PD-L1^+ cells (PD-L1^+), Cell count",[1]; [3],9.60 ×10^5
same,"Total PD-L1^+ cells (PD-L1^+), Total %",[1]; [3],3.79%
same,"Total PD-L1^+ cells (PD-L1^+), Total cells Gated %",[1]; [3],5.18%
same,"PD-L1^+ cells (CD45^− PD-L1^+), CD45^− Gated %",[1]; [4],15.51% and 5.86% and 9.64% and 4.13% and 12.53% and 7.23%
same,"PD-L1^+ cells (CD45^− PD-L1^+), Cell count",[1]; [4],9.41 ×10^5 and 2.07 ×10^5 and 10.69 ×10^5 and 0.07 ×10^5 and 6.63 ×10^5 and 0.61 ×10^5
same,"PD-L1^+ cells (CD45^− PD-L1^+), Total %",[1]; [4],4.84% and 1.01% and 1.98% and 0.35% and 2.69% and 0.84%
same,"Total PD-L1^+ cells (PD-L1^+), Cell count",[1]; [4],14.43 ×10^5 and 6.01 ×10^5 and 24.62 ×10^5 and 0.29 ×10^5 and 10.67 ×10^5 and 1.56 ×10^5
same,"Total PD-L1^+ cells (PD-L1^+), Total %",[1]; [4],7.42% and 2.94% and 4.56% and 1.34% and 4.33% and 2.15%
same,"Total PD-L1^+ cells (PD-L1^+), Total cells Gated %",[1]; [4],11.84% and 3.97% and 5.50% and 1.44% and 5.16% and 3.16%
same,"PD-L1^+ cells (CD45^− PD-L1^+), CD45^− Gated %",[1]; [5],4.40%
same,"PD-L1^+ cells (CD45^− PD-L1^+), Cell count",[1]; [5],0.38 ×10^5
same,"PD-L1^+ cells (CD45^− PD-L1^+), Total %",[1]; [5],0.48%
same,"Total PD-L1^+ cells (PD-L1^+), Cell count",[1]; [5],1.61 ×10^5
same,"Total PD-L1^+ cells (PD-L1^+), Total %",[1]; [5],2.08%
same,"Total PD-L1^+ cells (PD-L1^+), Total cells Gated %",[1]; [5],2.24%
same,"PD-L1^+ cells (CD45^− PD-L1^+), CD45^− Gated %",[1]; [6],4.18% and 2.31% and 4.37% and 7.16% and 4.63%
same,"PD-L1^+ cells (CD45^− PD-L1^+), Cell count",[1]; [6],0.08 ×10^5 and 0.30 ×10^5 and 0.41 ×10^5 and 0.51 ×10^5 and 0.49 ×10^5 and 0.47 ×10^5
same,"PD-L1^+ cells (CD45^− PD-L1^+), Total %",[1]; [6],0.27% and 0.24% and 0.58% (2×) and 0.52% and 0.66%
same,"Total PD-L1^+ cells (PD-L1^+), Cell count",[1]; [6],0.46 ×10^5 and 1.50 ×10^5 and 2.03 ×10^5 and 1.69 ×10^5 and 1.67 ×10^5 and 2.32 ×10^5
same,"Total PD-L1^+ cells (PD-L1^+), Total %",[1]; [6],1.58% and 1.19% and 2.88% and 1.71% and 2.24% and 2.86%
same,"Total PD-L1^+ cells (PD-L1^+), Total cells Gated %",[1]; [6],1.66% and 1.26% and 3.32% and 1.80% and 2.39% and 3.03%
same,CD45^− live cells (CD45^−ViaKrome405^weak) Cell count,[2]; [7],39.37 ×10^5 and 25.28 ×10^5 and 83.81 ×10^5 and 1.35 ×10^5 and 29.90 ×10^5 and 5.87 ×10^5
same,Calreticulin cells (CD45^− Calreticulin^+) Cell count,[2]; [7],5.54 ×10^5 and 1.27 ×10^5 and 10.26 ×10^5 and 0.06 ×10^5 and 1.11 ×10^5 and 0.19 ×10^5
same,Total CD45^− cells (CD45^−) Cell count,[2]; [7],70.58 ×10^5 and 45.89 ×10^5 and 130.41 ×10^5 and 2.18 ×10^5 and 65.25 ×10^5 and 10.35 ×10^5
same,CD45^− live cells (CD45^−ViaKrome405^weak) Cell count,[2]; [8],30.93 ×10^5
same,Calreticulin cells (CD45^− Calreticulin^+) Cell count,[2]; [8],3.07 ×10^5
same,Total CD45^− cells (CD45^−) Cell count,[2]; [8],54.11 ×10^5
same,CD45^− live cells (CD45^−ViaKrome405^weak) CTL Gated %,[2]; [7],55.78% and 55.07% and 64.29% and 61.79% and 45.83% and 56.69%
same,CD45^− live cells (CD45^−ViaKrome405^weak) Total %,[2]; [7],20.24% and 12.36% and 15.52% and 6.30% and 12.13% and 8.10%
same,Calreticulin cells (CD45^− Calreticulin^+) CTL Gated %,[2]; [7],14.09% and 5.02% and 12.21% and 4.51% and 3.69% and 3.21%
same,Calreticulin cells (CD45^− Calreticulin^+) Total %,[2]; [7],2.85% and 0.62% and 1.90% and 0.28% and 0.45% and 0.26%
same,Total CD45^− cells (CD45^−) CD45^+ Gated %,[2]; [7],50.59% and 29.66% and 28.87% and 12.41% and 31.01% and 21.40%
same,Total CD45^− cells (CD45^−) Total %,[2]; [7],36.29% and 22.44% and 24.15% and 10.20% and 26.47% and 14.28%
same,CD45^− live cells (CD45^−ViaKrome405^weak) CTL Gated %,[2]; [8],56.58%
same,CD45^− live cells (CD45^−ViaKrome405^weak) Total %,[2]; [8],12.44%
same,Calreticulin cells (CD45^− Calreticulin^+) CTL Gated %,[2]; [8],7.12%
same,Calreticulin cells (CD45^− Calreticulin^+) Total %,[2]; [8],1.06%
same,Total CD45^− cells (CD45^−) CD45^+ Gated %,[2]; [8],28.99%
same,Total CD45^− cells (CD45^−) Total %,[2]; [8],22.31%
same,CD45^− live cells (CD45^−ViaKrome405^weak) Cell count,"[2]; G3: OBI-3424 1 mg/kg, 1 mg/kg",1.72 ×10^5 and 9.67 ×10^5 and 7.88 ×10^5 and 9.07 ×10^5 and 5.22 ×10^5 and 6.72 ×10^5
same,Calreticulin cells (CD45^− Calreticulin^+) Cell count,"[2]; G3: OBI-3424 1 mg/kg, 1 mg/kg",0.05 ×10^5 and 0.25 ×10^5 (2×) and 0.88 ×10^5 and 0.19 ×10^5 and 0.12 ×10^5
same,Total CD45^− cells (CD45^−) Cell count,"[2]; G3: OBI-3424 1 mg/kg, 1 mg/kg",2.45 ×10^5 and 15.22 ×10^5 and 11.73 ×10^5 and 11.65 ×10^5 and 8.38 ×10^5 and 8.94 ×10^5
same,CD45^− live cells (CD45^−ViaKrome405^weak) Cell count,[2]; [9],6.71 ×10^5
same,Calreticulin cells (CD45^− Calreticulin^+) Cell count,[2]; [9],0.29 ×10^5
same,Total CD45^− cells (CD45^−) Cell count,[2]; [9],9.73 ×10^5
same,CD45^− live cells (CD45^−ViaKrome405^weak) CTL Gated %,"[2]; G3: OBI-3424 1 mg/kg, 1 mg/kg",70.28% and 63.52% and 67.13% and 77.84% and 62.30% and 75.12%
same,CD45^− live cells (CD45^−ViaKrome405^weak) Total %,"[2]; G3: OBI-3424 1 mg/kg, 1 mg/kg",5.94% and 7.66% and 11.16% and 9.18% and 7.02% and 8.30%
same,Calreticulin cells (CD45^− Calreticulin^+) CTL Gated %,"[2]; G3: OBI-3424 1 mg/kg, 1 mg/kg",2.90% and 2.61% and 11.18% and 2.75% and 3.65% and 1.83%
same,Calreticulin cells (CD45^− Calreticulin^+) Total %,"[2]; G3: OBI-3424 1 mg/kg, 1 mg/kg",0.17% and 0.20% and 1.25% and 0.25% and 0.26% and 0.15%

# — patent US20240216401A1, “COMBINATION THERAPY BY USING AKR1C3-ACTIVATED COMPOUND WITH IMMUNE CHECKPOINT INHIBITOR” (OBI Pharma, Inc., priority 2021, published 2024)
